In patent US12357657B2, “Silver-/gold-compounds and methods thereof” (priority 2019, dated 2025):

Assays:
MCR-1-producing E. coli = assay: Mutant prevention concentration (MPC) test; assay type: cell-based; conditions: for mutant colonies: colistin alone at 16×MIC, or colistin with 30 μg mL^−1 of the compound; for MPI of colistin (MPC/MIC): in presence of 30 μg mL^−1 of the compound
Text: Given the very notion of MIC, all susceptible bacterial cells are suppressed or killed by a dose above it. […] The dose of compounds at MIC adversely amplifies the population of those less-susceptible mutants. Thus, mutant prevention concentration (MPC), defined as a compound concentration that suppresses the growth of first-step resistant mutant in large quantity of susceptible bacterial population, together with mutant prevention index (MPI=MPC/MIC), is introduced to estimate the mutant prevention ability of exemplary compound combination. […] All the plates were incubated at 37° C. Upon incubation for 48 hours, up to 4 colonies were picked and re-cultured from any plates with observable colonies, followed by the measurement of their MIC values. […] The concentration that restricted the growth of mutant colonies was determined as MPC.

apo-MCR-1-S = apo-MCR-1-S (Escherichia coli, UniProt A0A0R6L508); assay: biochemical
Chain of apo-MCR-1-S (A0A0R6L508 200-541): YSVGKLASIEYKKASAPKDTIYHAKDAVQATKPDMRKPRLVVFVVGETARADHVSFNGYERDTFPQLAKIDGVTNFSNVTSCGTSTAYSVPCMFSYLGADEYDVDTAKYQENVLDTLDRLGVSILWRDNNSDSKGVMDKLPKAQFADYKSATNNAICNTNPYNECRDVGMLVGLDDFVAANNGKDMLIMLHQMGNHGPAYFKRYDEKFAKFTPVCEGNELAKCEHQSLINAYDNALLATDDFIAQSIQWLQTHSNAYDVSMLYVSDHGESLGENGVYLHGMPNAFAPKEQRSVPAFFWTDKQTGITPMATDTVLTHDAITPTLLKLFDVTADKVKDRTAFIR
Protocol: The apo-MCR-1-S without any tag was diluted into proper concentration for ITC assay. […] The stoichiometry of metal binding and binding affinities were obtained by fitting the data with proper equations and these assays were performed in triplicate.

Zn(II)-MCR-1-S = Zn(II)-MCR-1-S (Escherichia coli, UniProt A0A0R6L508); conditions: PAR assay
Chain of Zn(II)-MCR-1-S (A0A0R6L508 200-541): as above
Protocol: UV-visible spectra were collected by Varian Cary 50 spectrophotometer at a rate of 360 nm/min by using the 1 cm^−1 quartz cuvette. 4-(2-pyridylazo) resorcinol (PAR), a Zn(II) chelator, can strongly chelate free Zn^2+ to form Zn(PAR)2 complex, leading to an obvious migration of maximum absorbance peak from ca. 420 nm to ca. 500 nm. Herein, we incubated apo-MCR-1-S with 10 folds Zn^2+ in dialysis buffer (20 mM HEPES, pH=7.4, 50 mM NH4NO3). After 12 hour incubation, Zn(II)-MCR-1-S was separated into aliquots and then mixed with Ag(I), Au(I) or even their compounds at different molecular ratios. Dialysis buffer instead of these metal compounds was added into Zn(II)-MCR-1-S solution as negative controls. For positive control, 10-folds of Zn(II) were mixed with apo-MCR-1-S. By comparing the peak intensities among different groups, the amounts of released Zn(II) could be calculated. UV-visible spectra were recorded in a range of 220-600 nm at least 30 min later after incubation.

full length MCR-1 = target: T1, full length MCR-1 (Escherichia coli, UniProt A0A0R6L508); assay type: biochemical; conditions: MCR-1 pre-treated with 10 molar equivalents, 25° C. overnight
T1 construct: The full length MCR-1 was pre-treated with or without 10 molar equivalents
T1 sequence (A0A0R6L508 whole entry): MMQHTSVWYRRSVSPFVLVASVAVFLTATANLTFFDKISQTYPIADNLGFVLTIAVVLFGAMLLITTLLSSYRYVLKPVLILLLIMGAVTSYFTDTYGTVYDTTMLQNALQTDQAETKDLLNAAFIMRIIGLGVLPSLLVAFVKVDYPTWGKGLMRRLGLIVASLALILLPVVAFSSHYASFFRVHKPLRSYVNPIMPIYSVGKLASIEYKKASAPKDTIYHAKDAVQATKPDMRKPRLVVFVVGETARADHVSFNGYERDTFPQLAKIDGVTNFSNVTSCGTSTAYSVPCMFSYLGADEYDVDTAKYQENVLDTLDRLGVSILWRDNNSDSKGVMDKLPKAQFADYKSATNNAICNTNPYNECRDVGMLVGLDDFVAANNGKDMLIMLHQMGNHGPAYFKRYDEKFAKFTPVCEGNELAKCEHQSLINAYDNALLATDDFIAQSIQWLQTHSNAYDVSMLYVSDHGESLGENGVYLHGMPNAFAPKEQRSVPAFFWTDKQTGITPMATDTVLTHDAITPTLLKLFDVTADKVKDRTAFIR
Protocol: TLC plate was used to separate NBD-glycerol from the MCR-1 reaction mixture in a mobile phase [ethyl acetate:methanol:water, 7:2:1 (vol/vol)]. The reaction product was analyzed by exposing the TLC plate to UV light (455-485 nm) and visualizing the fluorescent signals with a gel imaging system. […] Cellular Thermal Shift Assay

MCR-1-S = MCR-1-S (Escherichia coli, UniProt A0A0R6L508); conditions: ICP-MS
Chain of MCR-1-S (A0A0R6L508 200-541): as the sequence (A0A0R6L508 200-541) above
Protocol: The equilibrium dialysis was used to monitor the exact binding process. Apo-MCR-1-S was put in the inner side of dialysis membrane and outer side was supplemented with Au^+, Ag^+ or Zn^2+ at different molar ratios. Zn^2+ displacement analysis was performed by adding equivalents of Au^+ and Ag^+ into outer side of the membrane.

[1] = test system: K. pneumoniae 9607 (MCR-1+); assay: Murine infection model, bacterial loads in liver and spleen; assay type: in vivo, mice; conditions: monotherapy, single i.p. dose 1 hr post-infection, 48 hrs; colistin 2 mg kg^−1, auranofin 0.5 mg kg^−1, AgNO3 1.5 mg kg^−1
Protocol: For local infection experiment, an overnight culture of K. pneumoniae 9607 (MCR-1^+) was performed 1:250 dilution in LB broth and re-grew to about OD600 0.5 at 37° C., 250 rpm. Bacterial pellets were collected and washed by PBS buffer three times for further use. Mice were infected intraperitoneally (i.p.) with a dose of 2×10^6 CFU of bacteria in PBS. […] All the mice were scarified at 48 hrs following systemic infection, and bacterial loads in livers and spleens were examined by agar plating. […] Body weights and mice survival were monitored till endpoint of the experiment.

E. coli CKE = assay: Murine systemic infection model, survival assay; assay type: in vivo, mice; conditions: for mice rescued from death: combination with colistin 1 mg kg^−1, single i.p. dose 0.5 hr post infection; for protection of mice from death: mono-therapy, AgNO3 0.75 mg kg^−1 or auranofin 0.25 mg kg^−1 i.p., within 72 hours
MCR-1-negative E. coli = assay type: cell-based; conditions: MCR-1-negative E. coli strain
Protocol: (§1) MIC values of either antibiotics or Bi(III) compounds were determined firstly by standard broth micro-dilution method (Clinical and Laboratory Standards Institute (CLSI) M100-S20, 2010). Briefly, bacteria cells were cultured in LB broth overnight at 37° C. at 250 rpm and the optical density was measured at 600 nm (OD600) using a microtiter plate reader. The bacterial density was adjusted to about 1×10^6 CFU mL^−1 and checked by CFU counting on agar plates afterwards. Tested compounds were added triplicately into individual wells of flat-bottomed 96-well plates and performed two-fold serial dilution, followed by addition of prepared bacterial inoculum. The plate was then incubated at 37° C. overnight. Lanes with no antibiotics or bismuth compounds served as positive controls and lanes with no bacteria added served as negative controls. The MIC was determined as the lowest concentration of compounds that could inhibit the growth of microorganism by both visual reading and OD600 measurement.
(§2) Other procedures and the check of MIC were kept strictly the same. […] Synergism was defined as FICI≤0.5, indifference was defined as FICI>0.5 and <4, and antagonism was defined as FICI≥4. All of the determinations were performed at least in triplicate on different days.

MCR-producing E. coli [2] = assay: In vitro serial passage resistance assay; assay type: cell-based; conditions: colistin combined with the compound
Protocol: The in vitro passage assay was also conducted to evaluate the antimicrobial durability of the combination. In a typical experiment, an overnight culture of MCR-producing E. coli was diluted to 10^7 CFU mL^−1 in LB broth. […] All the plates were incubated at 37° C. and the growth of cultures was checked at 24 h intervals. Cultures from the second highest concentrations that allowed growth were performed 1:1000 dilution into fresh medium supplemented with the same concentrations of drugs. For colistin, 1-fold of MIC was set as 4 μg mL^−1. This in vitro passage was repeated for 20 days. MIC of MER was determined every four passages.

S. flexneri (MCR-1+) = assay type: cell-based; conditions: MCR-1 positive S. flexneri; AgNO3 10 μM, auranofin 3 μM, Au(PEt3)Cl 3 μM; untreated 4.1, MCR-1 negative 6.1
Protocol: Membrane potential assay was carried out based on a modified method according to manufacturer's instructions. […] The bacterial pellets were then resuspended in PBS supplemented with DiOC2 (30 μM) and stained at 37° C. for 30 mins. Stained bacteria were then assayed in a flow cytometer and the signals from FITC-A (488 nm, green gate) and PI-A (633 nm, red gate) were collected and then analyzed. S. flexneri without treatment served as the control.

MCR-producing E. coli [3] = assay type: cell-based
Protocol: as §1, §2

MCR-1 = target: T2, MCR-1 (Escherichia coli, UniProt A0A0R6L508); assay type: cell-based, E. coli BL21(DE3); conditions: overnight exposure, in cellulo
T2 construct: solvable truncated MCR-1 fragment (200-541 aa) but without any tag; expressed in transfected cells; host or cells: E. coli BL21(DE3)
T2 sequence (A0A0R6L508 200-541): as above
Protocol: Considering that MCR-1 is a transmembrane protein, we constructed a plasmid with solvable truncated MCR-1 fragment (200-541 aa) but without any tag and then transferred it into E. coli BL21(DE3). The cellular thermal shift assay was performed according to a general standard method. […] The bacterial pellets were harvested and washed with PBS for 3 times. The cell suspensions were aliquoted into PCR tubes and heat treatment was performed at the designated temperature for 3 mins in a 96-well thermal cycler. The tubes were cooled immediately at 25° C., and the heat treatments were repeated for three cycles. For the cell lysis, the samples were frozen-thawed in liquid nitrogen and thermal cycler was set at 25° C. The samples were vortexed gently after each cycle and centrifuged at 20,000×g to obtain the supernatant. All the samples were subjected to SDS-PAGE gel and electrotransferred to a PVDF membrane (Hybond-P, GE Healthcare). A PageRuler Prestained Protein Ladder #26616 (Thermo) was used as a standard marker.

| SMILES | mutant colonies (MCR-1-producing E. coli) | MPI of colistin (MPC/MIC) (MCR-1-producing E. coli) | Kd (apo-MCR-1-S) [nM] | release of Zn(II) from MCR-1-S upon titration (Zn(II)-MCR-1-S) | migration of NBD-glycerol (cleavage activity of MCR-1) (full length MCR-1) | replacement of protein bound metal by extraneous Zn(II) (MCR-1-S) | equivalents of metal that replaced about 3 molar equivalents of Zn(II) (MCR-1-S; equilibrium dialysis) [equivalent] | CFUs in liver and spleen [1] | mice rescued from death (E. coli CKE) | protection of mice from death (E. coli CKE) | inhibition in combination with colistin (MCR-1-negative E. coli) | fold rise of colistin MIC after 16 serial passages (MCR-producing E. coli [2]) [folds] | green/red fluorescent ratio after treatment (S. flexneri (MCR-1+)) | MIC of colistin in combination with the compound (MCR-producing E. coli [3]; checkerboard, lowest colistin MIC reached with increasing compound) [µg/mL] | FIC index (FICI) with colistin (MCR-producing E. coli [3]; synergism FICI≤0.5) | decrease of cellular thermal stability of MCR-1, ΔTm (MCR-1) [°C] |
| --- | --- | --- | --- | --- | --- | --- | --- | --- | --- | --- | --- | --- | --- | --- | --- | --- |
| [Ag+] [AgNO3, silver nitrate] | no mutant colony was observable | 0.5 | ~200 | completely released | none of AgNO3, AuCl or Au(PEt3)Cl treatment group exhibited observable migration | could not be replaced | 16 | ~10^5 cfu mL^−1 g^−1 | 3 out of 6 | failed to protect any of the mice from death | no inhibition was observed |  |  |  |  |  |
| [Zn+2] [Zn(Ac)2, zinc(II) acetate] |  |  | ~2450 |  |  |  |  |  |  |  |  |  |  |  |  |  |
| CC(=O)OC[C@H]1O[C@@H]([S-])[C@H](OC(C)=O)[C@@H](OC(C)=O)[C@@H]1OC(C)=O.CCP(CC)CC.[Au+] [auranofin] | no mutant colony was observable | 0.5 |  |  |  |  |  | ~10^5 cfu mL^−1 g^−1 | protect all the infected mice from death | failed to protect any of the mice from death | no inhibition was observed | 4 | 6.1 | 0.25 | 0.375 | 5.2 |
